From patent publication EP4707277A1, “NOVEL HETEROCYCLIC AMINE DERIVATIVES AND PHARMACEUTICAL COMPOSITION COMPRISING SAME” (Daewoong Pharmaceutical Co., Ltd., priority 2023, dated 2024)
Where two headings read alike, the source gives them in different places.

Tests used:
[1] = biological target: T1, BTK (Homo sapiens, UniProt Q06187); experiment: Inhibitory activity against BTK, ADP-Glo Kinase system (Promega); format: biochemical
T1 construct: purchased Signalchem B10-10H
Method in brief: (§1)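 ADP-Glo luminescent ADP detection with recombinant human ITK (4 ng/reaction) or BTK (10 ng/reaction) and poly(Glu4,Tyr1) substrate at 0.2 µg/µl. Buffer: Tris pH 7.5, MgCl2, MnCl2, BSA, DTT. ATP 1 mM or Km (BTK 10 µM, ITK 25 µM); 1% DMSO; 1 h at 30°C; IC50 from curve fit.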

[2] = biological target: T2, ITK (Homo sapiens, UniProt Q08881); experiment: Inhibitory activity against ITK, ADP-Glo Kinase system (Promega); format: biochemical
T2 construct: purchased Signalchem I13-11G-10
T2 sequence (Q08881 1-620): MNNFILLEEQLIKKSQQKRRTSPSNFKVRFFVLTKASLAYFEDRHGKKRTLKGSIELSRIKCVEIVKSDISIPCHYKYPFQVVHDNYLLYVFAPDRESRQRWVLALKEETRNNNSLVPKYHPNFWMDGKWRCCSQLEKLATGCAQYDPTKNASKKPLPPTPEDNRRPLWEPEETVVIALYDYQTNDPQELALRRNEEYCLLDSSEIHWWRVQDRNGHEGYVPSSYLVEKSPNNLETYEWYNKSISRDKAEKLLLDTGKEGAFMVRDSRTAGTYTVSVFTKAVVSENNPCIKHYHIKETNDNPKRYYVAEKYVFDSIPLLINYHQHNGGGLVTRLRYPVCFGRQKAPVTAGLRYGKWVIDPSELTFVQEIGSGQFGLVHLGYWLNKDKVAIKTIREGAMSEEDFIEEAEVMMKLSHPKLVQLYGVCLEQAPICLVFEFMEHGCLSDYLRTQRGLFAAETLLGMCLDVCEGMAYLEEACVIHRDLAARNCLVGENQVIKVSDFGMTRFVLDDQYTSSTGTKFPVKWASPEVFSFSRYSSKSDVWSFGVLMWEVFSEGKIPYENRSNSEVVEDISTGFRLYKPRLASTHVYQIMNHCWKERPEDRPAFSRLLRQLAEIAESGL
Method in brief: as §1

[3] = 1mM ATP, read-out: BTK IC50(nM) 1mM ATP
[4] = 1mM ATP, read-out: ITK IC50(nM) 1mM ATP
[5] = Km ATP (BTK: 10 uM), read-out: BTK IC50(nM) Km ATP
[6] = Km ATP (ITK: 25uM), read-out: ITK IC50(nM) Km ATP

T1 sequence (Q06187 whole entry): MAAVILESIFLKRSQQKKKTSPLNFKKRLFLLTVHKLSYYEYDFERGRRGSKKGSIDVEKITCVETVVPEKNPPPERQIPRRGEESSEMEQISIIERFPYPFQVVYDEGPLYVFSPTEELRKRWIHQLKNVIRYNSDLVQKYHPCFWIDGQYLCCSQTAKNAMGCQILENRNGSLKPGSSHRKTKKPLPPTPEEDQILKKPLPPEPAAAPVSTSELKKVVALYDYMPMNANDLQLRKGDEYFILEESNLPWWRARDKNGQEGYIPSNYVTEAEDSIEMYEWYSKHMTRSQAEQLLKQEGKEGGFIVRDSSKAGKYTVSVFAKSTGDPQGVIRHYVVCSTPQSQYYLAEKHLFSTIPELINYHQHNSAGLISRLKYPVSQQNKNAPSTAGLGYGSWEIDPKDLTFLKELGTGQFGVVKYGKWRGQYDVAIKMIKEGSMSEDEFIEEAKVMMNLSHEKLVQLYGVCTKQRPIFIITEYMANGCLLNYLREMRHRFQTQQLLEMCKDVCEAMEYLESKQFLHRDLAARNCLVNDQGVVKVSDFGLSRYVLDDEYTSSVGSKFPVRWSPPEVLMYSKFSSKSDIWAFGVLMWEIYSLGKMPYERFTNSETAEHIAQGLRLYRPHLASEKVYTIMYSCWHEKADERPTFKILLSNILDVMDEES

Compound | IC50 [1, 3] [nM] | IC50 [2, 4] [nM] | IC50 [1, 5] [nM] | IC50 [2, 6] [nM]
C=CC(=O)N1C2C=C(c3nc(Nc4ncc(C)s4)cc4c3ccn4CC(F)(F)F)CC1CC2 (stereo not drawn) [Example 35, 1-(3-(6-((5-methylthiazol-2-yl)amino)-1-(2,2,2-trifluoroethyl)-1H-pyrrolo[3,2-c]pyridin-4-yl)-8-azabicyclo[3.2.1]oct-2-en-8-yl)prop-2-en-1-one] | ≤ 20 | ≤ 20 |  | 
C=CC(=O)Nc1ccc(F)c(-c2nc(Nc3ncc(C)s3)cc3c2ccn3C2CCCC2)c1 [Example 70, N-(3-(1-cyclopentyl-6-((5-methylthiazol-2-yl)amino)-1H-pyrrolo[3,2-c]pyridin-4-yl)-4-fluorophenyl)acrylamide] | ≤ 20 | 20 to 100 |  | 
C=CC(=O)N1CCC2(CC(Oc3nc(Nc4ncc(C)s4)cc4c3ccn4CC(C)C)C2)C1 (stereo not drawn) [Example 202, 1-(2-((1-isobutyl-6-((5-methylthiazol-2-yl)amino)-1H-pyrrolo[3,2-c]pyridin-4-yl)oxy)-6-azaspiro[3.4]octan-6-yl)prop-2-en-1-one] | 100 to 500 | 100 to 500 |  | 
C=CC(=O)N1C[C@@H](F)[C@H](Oc2nc(Nc3ncc(C)s3)cc3c2ccn3C(C)C)C1 [Example 91, 1-((3R,4R)-3-fluoro-4-((1-isopropyl-6-((5-methylthiazol-2-yl)amino)-1H-pyrrolo[3,2-c]pyridin-4-yl)oxy)pyrrolidin-1-yl)prop-2-en-1-one] | ≤ 20 | ≤ 20 |  | 
C=CC(=O)N1CC=C(c2nc(Nc3nnc(C)s3)cc3c2ccn3C(C)C)CC1 [Example 41, 1-(4-(1-isopropyl-6-((5-methyl-1,3,4-thiadiazol-2-yl)amino)-1H-pyrrolo[3,2-c]pyridin-4-yl)-3,6-dihydropyridin-1(2H)-yl)prop-2-en-1-one] |  |  | 20 to 100 | > 500
C=CC(=O)N1CC[C@H](Oc2nc(Nc3ncc(C)s3)cc3c2ccn3CC(F)(F)F)C1 [Example 205, (S)-1-(3-((6-((5-methylthiazol-2-yl)amino)-1-(2,2,2-trifluoroethyl)-1H-pyrrolo[3,2-c]pyridin-4-yl)oxy)pyrrolidin-1-yl)prop-2-en-1-one] | ≤ 20 | ≤ 20 |  | 
C=CC(=O)Nc1cc(-c2nc(Nc3ncc(C)s3)cc3c2ccn3CC2CCOC2)ccc1F (stereo not drawn) [Example 72, N-(2-fluoro-5-(6-((5-methylthiazol-2-yl)amino)-1-((tetrahydrofuran-3-yl)methyl)-1H-pyrrolo[3,2-c]pyridin-4-yl)phenyl)acrylamide] |  |  | ≤ 20 | ≤ 20
C=CC(=O)Nc1ccc(F)c(-c2nc(Nc3ncc(C)s3)cc3c2ccn3C(C)C)c1 [Example 59, N-(4-fluoro-3-(1-isopropyl-6-((5-methylthiazol-2-yl)amino)-1H-pyrrolo[3,2-c]pyridin-4-yl)phenyl)acrylamide] | ≤ 20 | ≤ 20 |  | 
C=CC(=O)N1CCC[C@H](Oc2nc(Nc3ncc(C)s3)cc3c2ccn3CC(C)C)C1 [Example 150, (S)-1-(3-((1-isobutyl-6-((5-methylthiazol-2-yl)amino)-1H-pyrrolo[3,2-c]pyridin-4-yl)oxy)piperidin-1-yl)prop-2-en-1-one] | ≤ 20 | 20 to 100 |  | 
C=CC(=O)Nc1cc(-c2nc(Nc3ncc(C)s3)cc3c2ccn3CC2CC2)ccc1F [Example 64, N-(5-(1-(cyclopropylmethyl)-6-((5-methylthiazol-2-yl)amino)-1H-pyrrolo[3,2-c]pyridin-4-yl)-2-fluorophenyl)acrylamide] |  |  | ≤ 20 | ≤ 20
C=CC(=O)N1CC=C(c2nc(Nc3ncc(C)s3)cc3c2ccn3C)C1 [Example 3, 1-(3-(1-methyl-6-((5-methylthiazol-2-yl)amino)-1H-pyrrolo[3,2-c]pyridin-4-yl)-2,5-dihydro-1H-pyrrol-1-yl)prop-2-en-1-one] |  |  | 100 to 500 | 100 to 500
C=CC(=O)N1C[C@@H](F)[C@H](Oc2nc(Nc3ncc(C)s3)cc3c2ccn3C[C@@H](C)CC)C1 [Example 175, 1-((3R,4R)-3-fluoro-4-((1-((S)-2-methylbutyl)-6-((5-methylthiazol-2-yl)amino)-1H-pyrrolo[3,2-c]pyridin-4-yl)oxy)pyrrolidin-1-yl)prop-2-en-1-one] | ≤ 20 | ≤ 20 |  | 
C=C(F)C(=O)N1CC[C@H](Oc2nc(Nc3ncc(C)s3)cc3c2ccn3CC(C)C)C1 [Example 224, (S)-2-fluoro-1-(3-((1-isobutyl-6-((5-methylthiazol-2-yl)amino)-1H-pyrrolo[3,2-c]pyridin-4-yl)oxy)pyrrolidin-1-yl)prop-2-en-1-one] | > 500 | > 500 |  | 
C=CC(=O)N1C[C@H](F)[C@H](Oc2nc(Nc3ccn(C)n3)cc3c2ccn3CC(C)C)C1 [Example 197, 1-((3S,4R)-3-fluoro-4-((1-isobutyl-6-((1-methyl-1H-pyrazol-3-yl)amino)-1H-pyrrolo[3,2-c]pyridin-4-yl)oxy)pyrrolidin-1-yl)prop-2-en-1-one] | > 500 | > 500 |  | 
C=CC(=O)Nc1cccc(-c2nc(Nc3ncc(C)s3)cc3c2ccn3CC(C)C)c1C [Example 62, N-(3-(1-isobutyl-6-((5-methylthiazol-2-yl)amino)-1H-pyrrolo[3,2-c]pyridin-4-yl)-2-methylphenyl)acrylamide] | ≤ 20 | 20 to 100 |  | 
C=CC(=O)N1CC(Oc2nc(Nc3ncc(C)s3)cc3c2ccn3CC2CC2)C1 [Example 145, 1-(3-((1-(cyclopropylmethyl)-6-((5-methylthiazol-2-yl)amino)-1H-pyrrolo[3,2-c]pyridin-4-yl)oxy)azetidin-1-yl)prop-2-en-1-one] | ≤ 20 | ≤ 20 |  | 
C=CC(=O)Nc1ccc(F)c(-c2nc(Nc3ncc(C)s3)cc3c2ccn3CC(C)C)c1 [Example 63, N-(4-fluoro-3-(1-isobutyl-6-((5-methylthiazol-2-yl)amino)-1H-pyrrolo[3,2-c]pyridin-4-yl)phenyl)acrylamide] | 20 to 100 | 100 to 500 | ≤ 20 | 20 to 100
C=CC(=O)N1CC[C@H](Oc2nc(Nc3cc(OC)ncn3)cc3c2ccn3C(C)C)C1 [Example 103, (S)-1-(3-((1-isopropyl-6-((6-methoxypyrimidin-4-yl)amino)-1H-pyrrolo[3,2-c]pyridin-4-yl)oxy)pyrrolidin-1-yl)prop-2-en-1-one] | ≤ 20 | 20 to 100 |  | 
C=CC(=O)N1CC[C@H](Oc2nc(Nc3ncc(C)s3)cc3c2ccn3CCCF)C1 [Example 190, (S)-1-(3-((1-(3-fluoropropyl)-6-((5-methylthiazol-2-yl)amino)-1H-pyrrolo[3,2-c]pyridin-4-yl)oxy)pyrrolidin-1-yl)prop-2-en-1-one] | ≤ 20 | ≤ 20 |  | 
C=CC(=O)N1CC=C(c2nc(Nc3ncc(C)s3)cc3c2ccn3CC(F)F)C(C)C1 (stereo not drawn) [Example 25, 1-(4-(1-(2,2-difluoroethyl)-6-((5-methylthiazol-2-yl)amino)-1H-pyrrolo[3,2-c]pyridin-4-yl)-3-methyl-3,6-dihydropyridin-1(2H)-yl)prop-2-en-1-one] | > 500 | > 500 |  | 
C=CC(=O)N1C[C@H](F)[C@H](Oc2nc(Nc3ncc(C)s3)cc3c2ccn3CCCF)C1 [Example 191, 1-((3S,4R)-3-fluoro-4-((1-(3-fluoropropyl)-6-((5-methylthiazol-2-yl)amino)-1H-pyrrolo[3,2-c]pyridin-4-yl)oxy)pyrrolidin-1-yl)prop-2-en-1-one] | ≤ 20 | ≤ 20 |  | 
C=CC(=O)N1CCCC12CC(Oc1nc(Nc3ncc(C)s3)cc3c1ccn3CC(C)C)C2 (stereo not drawn) [Example 200, 1-(2-((1-isobutyl-6-((5-methylthiazol-2-yl)amino)-1H-pyrrolo[3,2-c]pyridin-4-yl)oxy)-5-azaspiro[3.4]octan-5-yl)prop-2-en-1-one] | 20 to 100 | 100 to 500 |  | 
C=CC(=O)N1CC[C@H]1COc1nc(Nc2ncc(C)s2)cc2c1ccn2C(C)C [Example 86, (S)-1-(2-(((1-isopropyl-6-((5-methylthiazol-2-yl)amino)-1H-pyrrolo[3,2-c]pyridin-4-yl)oxy)methyl)azetidin-1-yl)prop-2-en-1-one] | ≤ 20 | 20 to 100 |  | 
C=CC(=O)N1CC[C@H](Oc2nc(Nc3ccn(C)n3)cc3c2ccn3C(C)C)C1 [Example 193, (S)-1-(3-((1-isopropyl-6-((1-methyl-1H-pyrazol-3-yl)amino)-1H-pyrrolo[3,2-c]pyridin-4-yl)oxy)pyrrolidin-1-yl)prop-2-en-1-one] | > 500 | > 500 |  | 
C=CC(=O)N1CC=C(c2nc(Nc3ncc(C)s3)cc3c2ccn3CC(F)(F)F)CC1 [Example 19, 1-(4-(6-((5-methylthiazol-2-yl)amino)-1-(2,2,2-trifluoroethyl)-1H-pyrrolo[3,2-c]pyridin-4-yl)-3,6-dihydropyridin-1(2H)-yl)prop-2-en-1-one] | 20 to 100 | 100 to 500 | ≤ 20 | ≤ 20
